Test results reported in ChEMBL document CHEMBL1201862, “PubChem BioAssay data set” (2004).
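Following 48 hours of exposure in 96-well plates, responses at five concentrations were used to interpolate endpoints linearly. Here, GI50 denotes the concentration required for 50% inhibition of growth.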 Active and inactive are the calls of the source. No stated cut-off is given here; in the data, active = GI50 up to about 1.1 µM and inactive = higher.

What was measured:
Assay in all cases: growth of human tumour cells (NCI), 48 h
[1] = system: 786-0
[2] = system: A549
[3] = system: ACHN
[4] = system: BT-549
[5] = system: CAKI-1
[6] = system: COLO 205
[7] = system: DU-145
[8] = system: EKVX
[9] = system: HCC 2998
[10] = system: HCT-116
[11] = system: HCT-15
[12] = system: HOP-62
[13] = system: HT-29
[14] = system: Hs-578T
[15] = system: IGROV-1
[16] = system: K562
[17] = system: KM12
[18] = system: M14
[19] = system: MCF7
[20] = system: MDA-MB-231
[21] = system: MDA-MB-435
[22] = system: MDA-N
[23] = system: MOLT-4
[24] = system: Malme-3M
[25] = system: NCI-H226
[26] = system: NCI-H23
[27] = system: NCI-H460
[28] = system: NCI-H522
[29] = system: NCI/ADR-RES
[30] = system: OVCAR-3
[31] = system: OVCAR-5
[32] = system: OVCAR-8
[33] = system: PC-3
[34] = system: RPMI-8226
[35] = system: RXF 393
[36] = system: SF-268
[37] = system: SF-295
[38] = system: SF-539
[39] = system: SK-MEL-28
[40] = system: SK-MEL-2
[41] = system: SK-MEL-5
[42] = system: SK-OV-3
[43] = system: SN12C
[44] = system: SNB-19
[45] = system: SNB-75
[46] = system: SR
[47] = system: SW-620
[48] = system: T47D
[49] = system: TK-10
[50] = system: U-251
[51] = system: UACC-257
[52] = system: UACC-62
[53] = system: UO-31
[54] = system: A498
[55] = system: HL-60
[56] = system: HOP-92
[57] = system: LOX IMVI
[58] = system: OVCAR-4
[59] = system: CCRF-CEM

Compound: CC(C)(C)OC(=O)NC(Cc1ccccc1)OCc1ccccc1 (configuration not stated)
- GI50 [1]: 17.2 µM (inactive)
- GI50 [2]: 17.6 µM (inactive)
- GI50 [3]: 19.4 µM (inactive)
- GI50 [4]: 23.3 µM (inactive)
- GI50 [5]: 19.6 µM (inactive)
- GI50 [6]: 35 µM (inactive)
- GI50 [7]: 20.1 µM (inactive)
- GI50 [8]: 17.4 µM (inactive)
- GI50 [9]: 23.9 µM (inactive)
- GI50 [10]: 17.9 µM (inactive)
- GI50 [11]: 19.4 µM
- GI50 [12]: 18.9 µM (inactive)
- GI50 [13]: 21.1 µM (inactive)
- GI50 [14]: 23.3 µM (inactive)
- GI50 [15]: > 10 µM (inactive)
- GI50 [16]: 20.6 µM (inactive)
- GI50 [17]: 19.5 µM (inactive)
- GI50 [18]: 17.9 µM (inactive)
- GI50 [19]: 19.7 µM (inactive)
- GI50 [20]: 15.3 µM (inactive)
- GI50 [21]: 19.4 µM (inactive)
- GI50 [22]: 19.3 µM (inactive)
- GI50 [23]: 17.4 µM (inactive)
- GI50 [24]: 23.6 µM (inactive)
- GI50 [25]: 18.7 µM (inactive)
- GI50 [26]: 16 µM (inactive)
- GI50 [27]: 21.3 µM (inactive)
- GI50 [28]: 11.4 µM (inactive)
- GI50 [29]: 26.7 µM (inactive)
- GI50 [30]: 23.2 µM (inactive)
- GI50 [31]: 24 µM (inactive)
- GI50 [32]: 20.1 µM (inactive)
- GI50 [33]: 13.5 µM (inactive)
- GI50 [34]: 26 µM (inactive)
- GI50 [35]: 20.8 µM (inactive)
- GI50 [36]: 18.4 µM (inactive)
- GI50 [37]: 16.6 µM (inactive)
- GI50 [38]: 21.4 µM (inactive)
- GI50 [39]: 17.9 µM (inactive)
- GI50 [40]: 29.4 µM (inactive)
- GI50 [41]: 15.5 µM (inactive)
- GI50 [42]: 17.6 µM (inactive)
- GI50 [43]: 26.1 µM (inactive)
- GI50 [44]: 19.5 µM (inactive)
- GI50 [45]: 12.2 µM (inactive)
- GI50 [46]: 30.7 µM (inactive)
- GI50 [47]: 17.2 µM (inactive)
- GI50 [48]: 14.6 µM (inactive)
- GI50 [49]: 19 µM (inactive)
- GI50 [50]: > 10 µM (inactive)
- GI50 [51]: > 10 µM (inactive)
- GI50 [52]: 15 µM (inactive)
- GI50 [53]: 17.1 µM (inactive)

Compound: C=CCC(C(=O)Nc1cccc2nc[nH]c12)C(=O)OCC (configuration not stated)
- GI50 [1]: > 100 µM (inactive)
- GI50 [54]: > 100 µM (inactive)
- GI50 [2]: > 100 µM (inactive)
- GI50 [3]: > 100 µM (inactive)
- GI50 [4]: > 100 µM (inactive)
- GI50 [7]: > 100 µM (inactive)
- GI50 [8]: > 100 µM (inactive)
- GI50 [9]: > 100 µM (inactive)
- GI50 [10]: > 100 µM (inactive)
- GI50 [11]: > 100 µM
- GI50 [55]: 33.2 µM (inactive)
- GI50 [12]: > 100 µM (inactive)
- GI50 [56]: > 100 µM (inactive)
- GI50 [13]: > 100 µM (inactive)
- GI50 [14]: > 100 µM (inactive)
- GI50 [15]: > 100 µM (inactive)
- GI50 [16]: > 100 µM (inactive)
- GI50 [17]: > 100 µM (inactive)
- GI50 [57]: > 100 µM (inactive)
- GI50 [18]: > 100 µM (inactive)
- GI50 [19]: > 100 µM (inactive)
- GI50 [20]: > 100 µM (inactive)
- GI50 [21]: > 100 µM (inactive)
- GI50 [22]: > 100 µM (inactive)
- GI50 [23]: > 100 µM (inactive)
- GI50 [25]: > 100 µM (inactive)
- GI50 [27]: > 100 µM (inactive)
- GI50 [28]: > 100 µM (inactive)
- GI50 [29]: 83.6 µM (inactive)
- GI50 [30]: > 100 µM (inactive)
- GI50 [58]: 43.1 µM (inactive)
- GI50 [31]: > 100 µM (inactive)
- GI50 [32]: > 100 µM (inactive)
- GI50 [33]: > 100 µM (inactive)
- GI50 [34]: > 100 µM (inactive)
- GI50 [36]: > 100 µM (inactive)
- GI50 [37]: > 100 µM (inactive)
- GI50 [38]: > 100 µM (inactive)
- GI50 [39]: > 100 µM (inactive)
- GI50 [40]: > 100 µM (inactive)
- GI50 [42]: > 100 µM (inactive)
- GI50 [43]: > 100 µM (inactive)
- GI50 [44]: > 100 µM (inactive)
- GI50 [45]: > 100 µM (inactive)
- GI50 [46]: > 100 µM (inactive)
- GI50 [47]: > 100 µM (inactive)
- GI50 [48]: > 100 µM (inactive)
- GI50 [49]: > 100 µM (inactive)
- GI50 [50]: > 100 µM (inactive)
- GI50 [51]: > 100 µM (inactive)
- GI50 [52]: 85.3 µM (inactive)
- GI50 [53]: > 100 µM (inactive)

Compound: CCC(C)C1(O)OC2CC3(C)OC(=CC3=O)/C(C)=C\C3OC(=O)C1(C)C32 (configuration not stated)
- GI50 [1]: 16.6 µM (inactive)
- GI50 [54]: 25.2 µM (inactive)
- GI50 [2]: 24.8 µM (inactive)
- GI50 [3]: 9.14 µM (inactive)
- GI50 [4]: 3.57 µM (inactive)
- GI50 [5]: 14.4 µM (inactive)
- GI50 [59]: 4.83 µM (inactive)
- GI50 [6]: 8.93 µM (inactive)
- GI50 [7]: 4.68 µM (inactive)
- GI50 [8]: 12.7 µM (inactive)
- GI50 [9]: 15.2 µM (inactive)
- GI50 [10]: 6.47 µM (inactive)
- GI50 [11]: 3.3 µM
- GI50 [55]: 3.12 µM (inactive)
- GI50 [12]: 22.8 µM (inactive)
- GI50 [56]: 8.75 µM (inactive)
- GI50 [13]: 14.2 µM (inactive)
- GI50 [14]: 30.5 µM (inactive)
- GI50 [15]: 18.8 µM (inactive)
- GI50 [16]: 7.6 µM (inactive)
- GI50 [17]: 10.6 µM (inactive)
- GI50 [57]: 14.7 µM (inactive)
- GI50 [18]: 21.1 µM (inactive)
- GI50 [19]: 9.77 µM (inactive)
- GI50 [20]: 19.1 µM (inactive)
- GI50 [21]: 11.9 µM (inactive)
- GI50 [22]: 1.73 µM (inactive)
- GI50 [23]: 12.3 µM (inactive)
- GI50 [25]: 25.9 µM (inactive)
- GI50 [26]: 5.53 µM (inactive)
- GI50 [27]: 14.2 µM (inactive)
- GI50 [28]: 3.92 µM (inactive)
- GI50 [29]: 17.2 µM (inactive)
- GI50 [30]: 10.4 µM (inactive)
- GI50 [58]: 42.5 µM (inactive)
- GI50 [31]: 28.3 µM (inactive)
- GI50 [32]: 16 µM (inactive)
- GI50 [33]: 37.2 µM (inactive)
- GI50 [34]: 7.1 µM (inactive)
- GI50 [36]: 13.9 µM (inactive)
- GI50 [37]: 20.5 µM (inactive)
- GI50 [38]: 22.3 µM (inactive)
- GI50 [39]: 14.3 µM (inactive)
- GI50 [40]: 21.3 µM (inactive)
- GI50 [41]: 10.5 µM (inactive)
- GI50 [42]: 37.6 µM (inactive)
- GI50 [43]: 11.8 µM (inactive)
- GI50 [44]: 33.7 µM (inactive)
- GI50 [45]: 37.2 µM (inactive)
- GI50 [46]: 5 µM (inactive)
- GI50 [47]: 3.37 µM (inactive)
- GI50 [48]: 15 µM (inactive)
- GI50 [49]: 21 µM (inactive)
- GI50 [50]: 27.5 µM (inactive)
- GI50 [51]: 7.01 µM (inactive)
- GI50 [52]: 14.3 µM (inactive)
- GI50 [53]: 17.8 µM (inactive)
